Data published in PubChem BioAssay AID1996.
In brackets after ≈: the same amount, converted by molar mass.

Details: buffer; pH 7.4; 200.0 µM

| SMILES | solubility kinetic |
| --- | --- |
| CCN(C(=O)N1CCOCC1)c1ccccc1C | 26 µg/mL (≈ 105 µM) |
| CCC(CC)NC(=O)c1cccc(Br)c1 | 38.1 µg/mL (≈ 141 µM) |
| COc1cc(C)c(CN2CCSCC2)cc1C | 12.1 µg/mL (≈ 48.1 µM) |
| N#Cc1cccc(NC(=O)CNC(=O)Cc2ccccc2)c1 | 42.1 µg/mL (≈ 144 µM) |
| NC(=O)c1cc(S(=O)(=O)N2CCc3ccccc3C2)cs1 | 2 µg/mL (≈ 6.2 µM) |
| Cc1ccc(Nc2nc(N)c([N+](=O)[O-])c(NCCO)n2)cc1C | 2.1 µg/mL (≈ 6.6 µM) |
| Cc1ccc(NC(c2ccccc2)c2nc3ccccc3[nH]c2=O)cc1 (stereo not given) | 0.5 µg/mL (≈ 1.46 µM) |
| O=C(Nc1ccc2c(c1)CCC2)c1ccc(Br)s1 | < 0.7 µg/mL |
| O=C(c1ccc(Oc2ccc([N+](=O)[O-])cc2)cc1)N1CCCCCC1 | 34.4 µg/mL (≈ 101 µM) |
| O=C(CN1C(=O)c2ccccc2S1(=O)=O)NCc1ccco1 | > 48 µg/mL |
| CC(=O)Nc1ccc(NC(=O)COc2ncnc3ccccc23)cc1 | > 50.5 µg/mL |
| CN(C(=O)c1cc2ccccc2o1)c1c(N)n(Cc2ccccc2)c(=O)[nH]c1=O | > 58.6 µg/mL |
| C#CC[N+](CC)(CC)CC#Cc1ccccc1.[Br-] | 37.8 µg/mL |
| COc1ccc(CCC(=O)NCc2ccc3c(c2)OCO3)cc1 | 23.1 µg/mL (≈ 73.7 µM) |
| O=C(Nc1cc(Cl)cc(Cl)c1)Nc1cnccn1 | 0.2 µg/mL (≈ 0.706 µM) |
| O=C(CC1NCCN(Cc2ccccc2)C1=O)Nc1ccc(Cl)cc1 (stereo not given) | 46.8 µg/mL (≈ 131 µM) |
| Cc1ccc(NC(=O)CN2CCCC2c2cccn2C)c(Br)c1 (stereo not given) | 11.4 µg/mL (≈ 30.3 µM) |
| CSc1ccc(S(=O)(=O)NC2CC2)cc1 | > 36.5 µg/mL |
| Cc1ccc(NC(=O)CCC(=O)c2cccs2)nc1 | 34.6 µg/mL (≈ 126 µM) |
| Cc1ccoc1C(=O)Nc1ccc2ccccc2c1 | 7.5 µg/mL (≈ 29.8 µM) |

| SMILES | solubility kinetic |
| --- | --- |
| Cn1c(NC(=O)c2ccccc2)nc2ccccc21 | 13 µg/mL (≈ 51.7 µM) |
| O=C(O)CNC(=S)NCc1ccccc1 | > 33.6 µg/mL |
| Cc1cnc(NC(=O)c2ccc(-c3ccc([N+](=O)[O-])cc3)o2)s1 | 1.9 µg/mL (≈ 5.77 µM) |
| CC(C)Cn1c(S(=O)(=O)O)nc2ccccc21 | > 38.1 µg/mL |
| Cc1nc2ccccn2c1C(=O)CSc1cccc(Cl)c1 | 3.9 µg/mL (≈ 12.3 µM) |
| O=C(Nc1cccnc1)c1ccccc1Cl | > 34.9 µg/mL |
| CC(=O)c1ccc(N2CCN(CC(O)c3ccccc3)CC2)cc1 (stereo not given) | > 48.7 µg/mL |
| Cc1ccc(NC(=O)Nc2cccc(C)n2)c(C)c1 | < 0.2 µg/mL |
| Cc1cc(C(=O)N2CCOCC2)ccc1[N+](=O)[O-] | > 37.5 µg/mL |
| NC(=O)c1ccc(S(=O)(=O)N2CCSCC2)cc1 | 37.9 µg/mL (≈ 132 µM) |
| O=C(N/N=C/c1ccc2c(c1)OCO2)C1CC1 | > 34.8 µg/mL |
| O=C(CCS(=O)(=O)c1ccccc1)NC1CCCC1 | > 42.2 µg/mL |
| CN(Cc1ccccc1)C(=O)c1ccc(COc2ccccc2)cc1 | 4.5 µg/mL (≈ 13.6 µM) |
| COc1cccc(CC(=O)NCC2(N3CCCCC3)CCCCC2)c1 | > 51.7 µg/mL |
| COC(=O)[C@H](Cc1ccccc1)NC(=O)N(C)Cc1ccccc1 | > 49 µg/mL |
| O=[N+]([O-])c1ccc(SCCc2ccncc2)cc1 | 31.5 µg/mL (≈ 121 µM) |
| Cc1nc(C)n(CC(=O)c2ccc(Cl)cc2Cl)n1 | > 42.6 µg/mL |
| CSc1ncccc1C(=O)OCC(=O)c1cc(C)n(C)c1C | 3.9 µg/mL (≈ 12.2 µM) |
| CCN(Cc1cc2cc(C)ccc2[nH]c1=O)C(=O)c1cccc([N+](=O)[O-])c1 | 11.5 µg/mL (≈ 31.5 µM) |
| O=C(c1ccccc1)C1CCN(C(=O)c2ccco2)CC1 | 41.6 µg/mL (≈ 147 µM) |

| SMILES | solubility kinetic |
| --- | --- |
| COC(=O)NC(C)N1C(=O)C2C3C=CC(C3)C2C1=O (stereo not given) | > 39.6 µg/mL |
| N#C/C(=C\N1CCCCC1)S(=O)(=O)c1ccc(Cl)cc1 | 8.2 µg/mL (≈ 26.4 µM) |
| O=[N+]([O-])c1ccc(C(O)C23CN4CN(CN(C4)C2)C3)cc1 (stereo not given) | 34.8 µg/mL (≈ 120 µM) |
| COc1ccc(OC)c(/C=C2\SC(N3CCCCC3)=NC2=O)c1 | 5.4 µg/mL (≈ 16.2 µM) |
| Cn1cc(Br)c(C(=O)N2CCCCCC2)n1 | > 42.9 µg/mL |
| CC(=O)c1ccc(NC(=O)c2ccc3nc(C)sc3c2)cc1 | 1.9 µg/mL (≈ 6.12 µM) |
| CC(=O)Nc1cc(NC(C)=O)cc(-c2nc3ccccc3[nH]2)c1 | > 46.3 µg/mL |
| Cc1ccc(C(=O)N(C)Cc2nc3ccccc3c(=O)[nH]2)cc1NC(=O)c1ccco1 | > 62.5 µg/mL |
| O=C(NCc1cccnc1)Nc1cccc([N+](=O)[O-])c1 | > 40.8 µg/mL |
| C/C(CC(=O)NCCN1CCOCC1)=N\NC(=O)c1ccncc1 | > 50 µg/mL |
| COc1ccc(CN(C(C)=O)c2ccccc2C(=O)O)cc1 | 43.7 µg/mL (≈ 146 µM) |
| COc1ccc(S(=O)(=O)N(Cc2ccccc2)c2ccccc2C(=O)O)cc1 | 53.7 µg/mL (≈ 135 µM) |
| COc1ccc2oc(C(=O)OCC(=O)NC3CCCC3)c(C)c2c1 | 6.7 µg/mL (≈ 20.2 µM) |
| O=C(O)CCNC(=O)/C(=C/c1ccco1)NC(=O)c1ccco1 | > 47.7 µg/mL |
| CC1CCC(NS(=O)(=O)c2ccc3c(c2)CC(=O)N3)CC1 (stereo not given) | 27.3 µg/mL (≈ 88.5 µM) |
| COC(=O)c1sc(NC(=O)COc2ccccc2C)nc1C | 0.6 µg/mL (≈ 1.87 µM) |
| NS(=O)(=O)c1cc(C(=O)OCC(=O)Nc2ccc3c(c2)OCO3)ccc1Cl | 16.9 µg/mL (≈ 40.9 µM) |
| O=C1/C(=C/c2cccnc2)N2CCC1CC2 | > 32.1 µg/mL |
| O=c1[nH]c(=S)n(C2CC2)c(O)c1C=NCc1cccnc1 | > 45.4 µg/mL |
| O=C(NCCc1ccc(F)cc1)c1cccc(NC(=O)c2ccccc2)c1 | 6 µg/mL (≈ 16.6 µM) |
